Reference: patent publication US8933019B2, “Antiviral cell-penetrating peptides” (priority 2008, dated 2015)
Read-outs that look alike come from different tables or passages of the source. Bridge positions count the residues as written; N and C are the ends. Square brackets hold non-standard residues; d marks the D form. Peptide text beside a SMILES is read from it. S5 = C=CCCC[C@](C)(N)C(=O)O

How the values were obtained:
HIV-1 SF2 = conditions: read-out: IC50 (μM ± SD), HIV-1 SF2; laboratory strain, subtype B, MT-2, coreceptor R5X4
Procedure: (§1) The inhibitory activity of NYAD-201, and related stapled peptides on infection by laboratory-adapted HIV-1 strains was determined as previously described (Jiang et al. J Exp. Med 174:1557-1563, 1991) with minor modifications. Azidothymidine (AZT) was used as a positive control in the infectivity assays. In brief, 1×10^4 MT-2 cells were infected with HIV-1 at 100 TCID50 (50% tissue culture infective dose) (0.01 MOI [multiplicity of infection]) in 200 μl RPMI 1640 medium containing 10% FBS in the presence or absence of peptides at graded concentrations overnight. The culture supernatants were then removed and fresh media containing freshly prepared test peptide were added. On the fourth day post-infection, 100 μl of culture supernatants were collected from each well, mixed with equal volume of 5% Triton X-100 and tested for p24 antigen by ELISA.
(§2) In addition, NYAD-201, NYAD-202 and NYAD-203 were also tested using several laboratory-adapted and primary isolates in MT-2 cells and PBMC (peripheral blood mononuclear cells), respectively.

HIV-1 AZT-R = conditions: read-out: IC50 (μM ± SD), HIV-1 AZT-R; RT-resistant isolate, subtype B, MT-2, coreceptor X4
Procedure: as §1, §2

HIV-1 IIIB [1] = tested on: HIV-1 IIIB
Procedure: as §1, §2

HIV-1 RF = conditions: read-out: IC50 (μM ± SD), HIV-1 RF; laboratory strain, subtype B, MT-2, coreceptor X4
Procedure: as §1, §2

HIV-1 MN = conditions: read-out: IC50 (μM ± SD), HIV-1 MN; laboratory strain, subtype B, MT-2, coreceptor X4
Procedure: as §1, §2

HIV-1RF/L-323-12-3 = conditions: read-out: IC50 (μM ± SD), HIV-1RF/L-323-12-3; PR-resistant isolate, subtype B, MT-2, coreceptor X4
Procedure: as §1, §2

Jurkat cells = assay: Cytotoxicity, LDH leakage, Jurkat cells; format: cell-based; conditions: 30 min, 2 hr and 4 hr of exposure
Procedure: (§3) Cytotoxicity was also evaluated in Jurkat cells using a Promega LDH leakage detection kit. Jurkat cells were plated at 10^4 cells/well in a volume of 200 μl. The test was performed after 30 min, 2 hr and 4 hr of exposure to the NYAD-201, NYAD-202 and NYAD-203 compounds.

MT-2 cells = assay: Cytotoxicity, XTT method, MT-2 cells; format: cell-based, human; conditions: 4 days
Procedure: (§4) Cytotoxicity of peptides in MT-2 cells and PBMC was measured by the XTT [(sodium 3′-(1-(phenylamino)-carbonyl)-3,4-tetrazolium-bis(4-methoxy-6-nitro) bezenesulfonic acid hydrate)] method as previously described (Jiang et al., 2004). Briefly, for MT-2 cells, 100 μl of a peptide at graded concentrations was added to an equal volume of cells (1×10^5 cells/ml) in 96-well plates followed by incubation at 37° C. for 4 days, which ran parallel to the neutralization assay in MT-2 (except medium was added instead of virus). In the case of PBMC, 5×10^5 cells/ml were used and the cytotoxicity was measured after 7 days. After addition of XTT (PolySciences, Inc.), the soluble intracellular formazan was quantitated colorimetrically at 450 nm 4 hr later with a reference at 620 nm. The percent of cytotoxicity and the CC50 values were calculated as above (Table 2 and Table 3).

[2] = Cytotoxicity, XTT method, MT-2 cells; format: cell-based, human; conditions: human, read-out: CC50 (μM) ± SD, cytotoxicity in MT-2 cells
Procedure: as §4

[3] = Solubility, observation in the Jurkat cytotoxicity test; format: physicochemical
Procedure: as §3

[4] = Cytotoxicity, XTT method, PBMC; format: cell-based; conditions: human
Procedure: as §4

HIV-1 IIIB [5] = assay: Release and infectivity of HIV-1 virus released from infected MT-2 cells after treatment; format: cell-based; conditions: lower dose 6.25 μg/ml, normalized for p24, TCID50
Procedure: On the fourth day post-infection, the supernatants were collected and filtered with a 0.45 μm PVDF membrane. One aliquot of the supernatants from each sample was mixed 1:1 with a solution of 5% Triton X-100 for p24 quantification, and stored at 4° C., another aliquot was immediately frozen at −80° C. and used to compare the infectivity of the viral particles released by NYAD-201 and NYAD-202 treated cells to the viral particles released by untreated cells. The protein p24 was first quantified by sandwich-ELISA, then the viral samples were normalized for the p24 content and titered to calculate the TCID50. MT-2 cells were infected with a two fold dilutions of virus from NYAD-201 and NYAD-202 treated and untreated cells. […] On the fourth day post infection supernatants were collected for p24 quantification by sandwich-ELISA and the TCID50 was calculated by the Spearman-Karber statistical method. […]
For these reasons, not only the quantity but also the quality of the viral particles released in the supernatant was evaluated. First, the p24/viral particles released in the supernatant following NYAD-201 and NYAD-202 treatment were quantified, then starting with the same amount of p24 per sample, the viruses released in the supernatant were titered. The TCID50 was calculated and expressed as percentage infectivity with respect to the untreated positive control. […]

SMILES: CSCC[C@@H]1NC(=O)[C@H](Cc2c[nH]c3ccccc23)NC(=O)[C@@](C)(NC(=O)[C@H](CCCCN)NC(=O)[C@@H](NC(=O)[C@H](CCC(=O)O)NC(=O)[C@H](CCC(N)=O)NC(=O)[C@H](C)N)C(C)C)CCCC=CCCC[C@@](C)(C(=O)N[C@H](C(=O)N[C@@H](CC(C)C)C(=O)N[C@@H](CC(C)C)C(=O)N[C@H](C(=O)N[C@@H](C)C(N)=O)C(C)C)[C@@H](C)O)NC(=O)[C@H]([C@@H](C)O)NC1=O [NYAD-201, AQEVKXWMTXTLLVA] (H-AQEVK[S5]WMT[S5]TLLVA-NH2; staple 6-10)
- IC50 (HIV-1 SF2): 5.06 ± 1.37 µM
- IC50 (HIV-1 AZT-R): 8 ± 1.27 µM
- IC50 (HIV-1 IIIB [1]; read-out: IC50 (μM ± SD), HIV-1 IIIB, laboratory strain, subtype B, MT-2, coreceptor X4): 4.29 ± 0.62 µM
- IC50 (HIV-1 IIIB [1]; read-out: IC50 (μM) ± SD, antiviral activity against HIV-1 IIIB, MT-2 cells, p24 production, fourth day post-infection): 4.29 ± 0.62 µM
- IC50 (HIV-1 RF): 2.84 ± 0.63 µM
- IC50 (HIV-1 MN): 3.03 ± 0.61 µM
- IC50 (HIV-1RF/L-323-12-3): 5.6 ± 0.5 µM
- Cytotoxicity in Jurkat cells (LDH leakage) (Jurkat cells): did not demonstrate toxicity
- CC50 (MT-2 cells): > 115 µM
- CC50 at 4 days [2]: > 115 µM
- Solubility [3]: not very soluble
- CC50 at 7 days [4]: > 115 µM
- Percentage infectivity of virus produced by treated cells with respect to untreated control (HIV-1 IIIB [5]): 50%
